Our source for the EC50 values is patent publication US10428041B2, “Pyridyl reverse sulfonamides for HBV treatment” (Novira Therapeutics, Inc., priority 2014, dated 2019).

In this test the test system is HBV replication in HepG2-2.2.15 cells. The experiment in a line: Inhibition of HBV replication dot-blot assay. It is filed as cell-based. To be noted: Hepatitis B virus, 144 h, reduction in HBV DNA levels, six days. How it is done: Compounds active in the HBV assembly assay are tested for their activity and toxicity in cellular assay. In the first anti-viral assay, the ability of compounds to inhibit HBV replication in an HBV-producing hepatoma cell line using the dot-blot method is evaluated.
(§1) Briefly, confluent monolayers of HepG2-2.2.15 cells are incubated with complete medium containing various concentrations of a test compound. Three days later, the culture medium is replaced with fresh medium containing the appropriately diluted test compound. Six days following the initial administration of the test compound, the cell culture supernatant is collected, and cell lysis is performed. The samples are applied onto Nylos membranes and DNA is immobilized to the membrane by UV cross-linking. After pre-hybridization, the HBV probe is added and the hybridization is performed overnight. The membranes are exposed to the KODAK films; antiviral activity is calculated from the reduction in HBV DNA levels (EC50). The EC50 for antiviral activity is calculated from the dose response curves of active compounds. Assay performance over time is monitored by the use of the standard positive control compounds ETV, BAY 41-4109, and HAP-1.
Selected compounds are tested for their activity and toxicity in cellular assay. In the first anti-viral assay, the ability of compounds to inhibit HBV replication in an HBV-producing hepatoma cell line using the dot-blot method is evaluated.
as §1, with “Confluent monolayers” for “Briefly, confluent monolayers”, “lysis was” for “lysis is”

SMILES strings stand for the structures. Bounds are passed on as bounds.

For the compound `O=C(Nc1ccc(F)c(Cl)c1)c1ccnc(NS(=O)(=O)CCc2ccccc2)c1` [Compound 21, N-(3-Chloro-4-fluorophenyl)-2-(2-phenylethylsulfonamido)isonicotinamide], the EC50 (in general, the concentration that produces a half-maximal response) is under 10 µM.
As to `O=C(Nc1ccc(F)c(Cl)c1)c1ccnc(NS(=O)(=O)CCC2CC2)c1` [Compound 23, N-(3-Chloro-4-fluorophenyl)-2-(2-cyclopropylethylsulfonamido)isonicotinamide], the EC50 is under 10 µM.
`CS(=O)(=O)Nc1cc(C(=O)Nc2ccc(F)c(Cl)c2)ccn1` [Compound 35, N-(3-Chloro-4-fluorophenyl)-2-(methylsulfonamido)isonicotinamide] gave an EC50 of under 10 µM.
Compound `O=C(Nc1ccc(F)c(Cl)c1)c1ccnc(NS(=O)(=O)CC2CC2)c1` [Compound 36, N-(3-Chloro-4-fluorophenyl)-2-(cyclopropylmethylsulfonamido)isonicotinamide] registered an EC50 of under 10 µM.
